Measured values taken from PubChem BioAssay AID1963825 (Molecular Pharmacology Branch, DTP, NCI, 2024).

Test: Anticancer human tumor 997537-175-T-J1-PDC patient-derived colon adenocarcinoma cell line growth inhibition [POLQ]
Details: 997537-175-T-J1-PDC complex spheroid viability, combination with POLQ inhibitors; second compound 0.0316 µM; first compound 3.16 µM; active compounds read low
Outline: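 PDC + HUVEC + MSC complex spheroids; POLQ inhibitors ± partner drugs; top conc. at/near clinical Cmax, else 10 microM (SN-38 1 microM), half-log dilutions; 37 degrees C, 5% CO2.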
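Note: luminescence signal used as a surrogate for viable cells; spheroids exposed to drugs for seven days before readout.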

Row | Structure (SMILES) | viability, T/C
1 | CC1COCCN1c1cc(-c2ccnn2C)c2ccnc(-c3ccn[nH]3)c2n1 (stereo unspecified) + Nc1ccc(C#CCN(C(=O)Cc2ncc(C(F)(F)F)cc2C(F)(F)F)c2ccc(F)cc2)nn1 | 36.8%
2 | CC1COCCN1c1cc(C2(O)CC3CCC(C2)O3)c2cnn(-c3ccn[nH]3)c2n1 (stereo unspecified) + Cc1cccc(N(C)C(=O)C2C(O)CCN2c2nc(C)cc(C(F)(F)F)c2C#N)c1 | 58.3%
3 | CC1COCCN1c1cc(C2(O)CC3CCC(C2)O3)c2cnn(-c3ccn[nH]3)c2n1 (stereo unspecified) + COC1C(OC(N)=O)C(O)C(Oc2ccc3c(O)c(NC(=O)c4ccc(O)c(CC=C(C)C)c4)c(=O)oc3c2C)OC1(C)C | 40.1%

Same assay, conditions: 997537-175-T-J1-PDC complex spheroid viability, combination with POLQ inhibitors; second compound 0.0316 µM; first compound 10 µM; active compounds read low

Row | Structure (SMILES) | viability, T/C
4 | COc1cc2cc(C(=O)CCC(=O)O)sc2cc1OC + COC1C(OC(N)=O)C(O)C(Oc2ccc3c(O)c(NC(=O)c4ccc(O)c(CC=C(C)C)c4)c(=O)oc3c2C)OC1(C)C | 80.3%
5 | O=C(Nc1ccc(O)c(NS(=O)(=O)c2ccc(F)cc2)c1)c1ccc(-c2ccccc2)cc1 + Nc1ccc(C#CCN(C(=O)Cc2ncc(C(F)(F)F)cc2C(F)(F)F)c2ccc(F)cc2)nn1 | 97.7%
6 | CC1COCCN1c1cc(-c2ccnn2C)c2ccnc(-c3ccn[nH]3)c2n1 (stereo unspecified) + Nc1ccc(C#CCN(C(=O)Cc2ncc(C(F)(F)F)cc2C(F)(F)F)c2ccc(F)cc2)nn1 | 71.6%
7 | CC1COCCN1c1cc(C2(O)CC3CCC(C2)O3)c2cnn(-c3ccn[nH]3)c2n1 (stereo unspecified) + Cc1cccc(N(C)C(=O)C2C(O)CCN2c2nc(C)cc(C(F)(F)F)c2C#N)c1 | 39%
8 | CC1COCCN1c1cc(C2(O)CC3CCC(C2)O3)c2cnn(-c3ccn[nH]3)c2n1 (stereo unspecified) + COC1C(OC(N)=O)C(O)C(Oc2ccc3c(O)c(NC(=O)c4ccc(O)c(CC=C(C)C)c4)c(=O)oc3c2C)OC1(C)C | 52%

Same assay, conditions: 997537-175-T-J1-PDC complex spheroid viability, combination with POLQ inhibitors; second compound 0.1 µM; first compound 0.0316 µM; active compounds read low

Row | Structure (SMILES) | viability, T/C
9 | COc1cc2cc(C(=O)CCC(=O)O)sc2cc1OC + COC1C(OC(N)=O)C(O)C(Oc2ccc3c(O)c(NC(=O)c4ccc(O)c(CC=C(C)C)c4)c(=O)oc3c2C)OC1(C)C | 94.3%
10 | O=C(Nc1ccc(O)c(NS(=O)(=O)c2ccc(F)cc2)c1)c1ccc(-c2ccccc2)cc1 + Nc1ccc(C#CCN(C(=O)Cc2ncc(C(F)(F)F)cc2C(F)(F)F)c2ccc(F)cc2)nn1 | 109%
11 | CC1COCCN1c1cc(-c2ccnn2C)c2ccnc(-c3ccn[nH]3)c2n1 (stereo unspecified) + Nc1ccc(C#CCN(C(=O)Cc2ncc(C(F)(F)F)cc2C(F)(F)F)c2ccc(F)cc2)nn1 | 101%
12 | CC1COCCN1c1cc(C2(O)CC3CCC(C2)O3)c2cnn(-c3ccn[nH]3)c2n1 (stereo unspecified) + Cc1cccc(N(C)C(=O)C2C(O)CCN2c2nc(C)cc(C(F)(F)F)c2C#N)c1 | 94.8%
13 | CC1COCCN1c1cc(C2(O)CC3CCC(C2)O3)c2cnn(-c3ccn[nH]3)c2n1 (stereo unspecified) + COC1C(OC(N)=O)C(O)C(Oc2ccc3c(O)c(NC(=O)c4ccc(O)c(CC=C(C)C)c4)c(=O)oc3c2C)OC1(C)C | 75.6%

Same assay, conditions: 997537-175-T-J1-PDC complex spheroid viability, combination with POLQ inhibitors; second compound 0.1 µM; first compound 0.1 µM; active compounds read low

Row | Structure (SMILES) | viability, T/C
14 | COc1cc2cc(C(=O)CCC(=O)O)sc2cc1OC + COC1C(OC(N)=O)C(O)C(Oc2ccc3c(O)c(NC(=O)c4ccc(O)c(CC=C(C)C)c4)c(=O)oc3c2C)OC1(C)C | 96.3%
15 | O=C(Nc1ccc(O)c(NS(=O)(=O)c2ccc(F)cc2)c1)c1ccc(-c2ccccc2)cc1 + Nc1ccc(C#CCN(C(=O)Cc2ncc(C(F)(F)F)cc2C(F)(F)F)c2ccc(F)cc2)nn1 | 91.9%
16 | CC1COCCN1c1cc(-c2ccnn2C)c2ccnc(-c3ccn[nH]3)c2n1 (stereo unspecified) + Nc1ccc(C#CCN(C(=O)Cc2ncc(C(F)(F)F)cc2C(F)(F)F)c2ccc(F)cc2)nn1 | 92.2%
17 | CC1COCCN1c1cc(C2(O)CC3CCC(C2)O3)c2cnn(-c3ccn[nH]3)c2n1 (stereo unspecified) + Cc1cccc(N(C)C(=O)C2C(O)CCN2c2nc(C)cc(C(F)(F)F)c2C#N)c1 | 94.2%
18 | CC1COCCN1c1cc(C2(O)CC3CCC(C2)O3)c2cnn(-c3ccn[nH]3)c2n1 (stereo unspecified) + COC1C(OC(N)=O)C(O)C(Oc2ccc3c(O)c(NC(=O)c4ccc(O)c(CC=C(C)C)c4)c(=O)oc3c2C)OC1(C)C | 81.3%

Same assay, conditions: 997537-175-T-J1-PDC complex spheroid viability, combination with POLQ inhibitors; second compound 0.1 µM; first compound 0.316 µM; active compounds read low

Row | Structure (SMILES) | viability, T/C
19 | COc1cc2cc(C(=O)CCC(=O)O)sc2cc1OC + COC1C(OC(N)=O)C(O)C(Oc2ccc3c(O)c(NC(=O)c4ccc(O)c(CC=C(C)C)c4)c(=O)oc3c2C)OC1(C)C | 87.5%
20 | O=C(Nc1ccc(O)c(NS(=O)(=O)c2ccc(F)cc2)c1)c1ccc(-c2ccccc2)cc1 + Nc1ccc(C#CCN(C(=O)Cc2ncc(C(F)(F)F)cc2C(F)(F)F)c2ccc(F)cc2)nn1 | 96.8%
21 | CC1COCCN1c1cc(-c2ccnn2C)c2ccnc(-c3ccn[nH]3)c2n1 (stereo unspecified) + Nc1ccc(C#CCN(C(=O)Cc2ncc(C(F)(F)F)cc2C(F)(F)F)c2ccc(F)cc2)nn1 | 38.2%
22 | CC1COCCN1c1cc(C2(O)CC3CCC(C2)O3)c2cnn(-c3ccn[nH]3)c2n1 (stereo unspecified) + Cc1cccc(N(C)C(=O)C2C(O)CCN2c2nc(C)cc(C(F)(F)F)c2C#N)c1 | 48.6%
23 | CC1COCCN1c1cc(C2(O)CC3CCC(C2)O3)c2cnn(-c3ccn[nH]3)c2n1 (stereo unspecified) + COC1C(OC(N)=O)C(O)C(Oc2ccc3c(O)c(NC(=O)c4ccc(O)c(CC=C(C)C)c4)c(=O)oc3c2C)OC1(C)C | 36%

Same assay, conditions: 997537-175-T-J1-PDC complex spheroid viability, combination with POLQ inhibitors; second compound 0.1 µM; first compound 1 µM; active compounds read low

Row | Structure (SMILES) | viability, T/C
24 | COc1cc2cc(C(=O)CCC(=O)O)sc2cc1OC + COC1C(OC(N)=O)C(O)C(Oc2ccc3c(O)c(NC(=O)c4ccc(O)c(CC=C(C)C)c4)c(=O)oc3c2C)OC1(C)C | 93.5%
25 | O=C(Nc1ccc(O)c(NS(=O)(=O)c2ccc(F)cc2)c1)c1ccc(-c2ccccc2)cc1 + Nc1ccc(C#CCN(C(=O)Cc2ncc(C(F)(F)F)cc2C(F)(F)F)c2ccc(F)cc2)nn1 | 105%
26 | CC1COCCN1c1cc(-c2ccnn2C)c2ccnc(-c3ccn[nH]3)c2n1 (stereo unspecified) + Nc1ccc(C#CCN(C(=O)Cc2ncc(C(F)(F)F)cc2C(F)(F)F)c2ccc(F)cc2)nn1 | 49.5%
